Experimental data published in patent US20230091047A1 (priority 2019, published 2023).

Legend:
[1] = system: HBV (HepG2.117 cell line, inducibly HBV producing); experiment: Anti-HBV activity: intracellular HBV DNA by real-time PCR in HepG2.117 cells after 3 days of treatment; format: cell-based, hepatitis B virus; settings: Hepatitis B virus, HepG2.117, 72 h, HepG2.117 cells, 3 days of treatment, intracellular HBV DNA by real-time PCR; mean value; read-out: EC50 (μM, mean value)
How it was run: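 HepG2.117 cells (Tet-off, inducible HBV production) were induced to replicate HBV by doxycycline absence, then treated with serially diluted compound for 3 days. Activity was quantified as intracellular HBV DNA by real-time PCR using an HBV-specific primer set and probe.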

[2] = in vitro; format: cell-based; settings: human, HepG2 or HepG2.117 cells, 3-days incubation (unmarked values), ATPlite; mean value
How it was run: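 Luminescent ATP quantitation served as the viability endpoint following a 3- or 4-day incubation with test compounds.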

Structure (SMILES)	EC50 [1]	CC50 at 3 days [2]
CC(C)Nc1nc2c(c(=O)n1-c1ccc(S(C)(=O)=O)cc1)CCN(C(=O)c1cc3ccccc3s1)C2 [Compound C182, 7-(1-benzothiophene-2-carbonyl)-3-[4-(methanesulfonyl)phenyl]-2-[(propan-2-yl)amino]-5,6,7,8-tetrahydropyrido[3,4-d]pyrimidin-4(3H)-one]	3.14 µM	> 50 µM
CC(C)Nc1nc2c(c(=O)n1-c1ccc(Br)cc1)C[C@@H](C)N(C(=O)c1ccc(Cl)c(Cl)c1)C2 [Compound C183, (6R)-3-(4-bromophenyl)-7-(3,4-dichlorobenzoyl)-6-methyl-2-[(propan-2-yl)amino]-5,6,7,8-tetrahydropyrido[3,4-d]pyrimidin-4(3H)-one]	0.21 µM	> 50 µM
CC(C)Nc1nc2c(c(=O)n1-c1ccc(S(C)(=O)=O)cc1)CCN(C(=O)C1Cc3ccccc3N1)C2 (centres unmarked) [Compound C184, 7-(2,3-dihydro-1H-indole-2-carbonyl)-3-[4-(methanesulfonyl)phenyl]-2-[(propan-2-yl)amino]-5,6,7,8-tetrahydropyrido[3,4-d]pyrimidin-4(3H)-one]	0.71 µM	> 50 µM
CC(C)Nc1nc2c(c(=O)n1-c1ccc(-c3cn[nH]c3)cc1)CCN(C(=O)c1ccc(Cl)c(Cl)c1)C2 [Compound C186, 7-(3,4-dichlorobenzoyl)-2-[(propan-2-yl)amino]-3-[4-(1H-pyrazol-4-yl)phenyl]-5,6,7,8-tetrahydropyrido[3,4-d]pyrimidin-4(3H)-one]	0.51 µM	> 50 µM
CC(C)Nc1nc2c(c(=O)n1-c1ccc(-c3ncccn3)cc1)CCN(C(=O)c1ccc(Cl)c(Cl)c1)C2 [Compound C187, 7-(3,4-dichlorobenzoyl)-2-[(propan-2-yl)amino]-3-[4-(pyrimidin-2-yl)phenyl]-5,6,7,8-tetrahydropyrido[3,4-d]pyrimidin-4(3H)-one]	0.71 µM	> 45 µM
CC(C)Nc1nc2c(c(=O)n1-c1ccc(-c3cncs3)cc1)CCN(C(=O)c1ccc(Cl)c(Cl)c1)C2 [Compound C188, 7-(3,4-dichlorobenzoyl)-2-[(propan-2-yl)amino]-3-[4-(1,3-thiazol-5-yl)phenyl]-5,6,7,8-tetrahydropyrido[3,4-d]pyrimidin-4(3H)-one]	0.51 µM	> 50 µM
CC(C)Nc1nc2c(c(=O)n1-c1ccc(-c3ccn4ccnc4c3)cc1)C[C@@H](C)N(C(=O)c1ccc(Cl)c(Cl)c1)C2 [Compound C189, (6R)-7-(3,4-dichlorobenzoyl)-3-[4-(imidazo[1,2-a]pyridin-7-yl)phenyl]-6-methyl-2-[(propan-2-yl)amino]-5,6,7,8-tetrahydropyrido[3,4-d]pyrimidin-4(3H)-one]	0.1 µM	9.8 µM
CC(C)Nc1nc2c(c(=O)n1-c1ccc(NC3COC3)cc1)C[C@@H](C)N(C(=O)c1ccc(Cl)c(Cl)c1)C2 [Compound C190, (6R)-7-(3,4-dichlorobenzoyl)-6-methyl-3-{4-[(oxetan-3-yl)amino]phenyl}-2-[(propan-2-yl)amino]-5,6,7,8-tetrahydropyrido[3,4-d]pyrimidin-4(3H)-one]	0.18 µM	> 50 µM
CC(C)Nc1nc2c(c(=O)n1-c1ccc(S(C)(=O)=O)cc1)CCN(C(=O)c1ccc(Cl)c(C(F)(F)F)c1)C2 [Compound C191, 7-[4-chloro-3-(trifluoromethyl)benzoyl]-3-[4-(methanesulfonyl)phenyl]-2-[(propan-2-yl)amino]-5,6,7,8-tetrahydropyrido[3,4-d]pyrimidin-4(3H)-one]	0.4 µM	> 50 µM
CC(C)Nc1nc2c(c(=O)n1-c1ccc(-c3nccn3C)cc1)C[C@@H](C)N(C(=O)c1ccc(Cl)c(Cl)c1)C2 [Compound C192, (6R)-7-(3,4-dichlorobenzoyl)-6-methyl-3-[4-(1-methyl-1H-imidazol-2-yl)phenyl]-2-[(propan-2-yl)amino]-5,6,7,8-tetrahydropyrido[3,4-d]pyrimidin-4(3H)-one]	0.13 µM	36.1 µM
